# Values joined by “and” are separate entries in the source; they are usually repeats but may differ in a detail not shown here. Identical values can stand only once. Like-named read-outs stand apart in the source and are kept apart here.
# How the values were obtained:
# Akt2 = Akt2 (Homo sapiens, UniProt P31751); assay: STK HTRF KinEASE activity-based assay (IC50)
# Ba/F3^myr-Akt3 cells = assay: CellTiter-Glo cell viability assay; conditions: for Log ratio EC50 [Akt] / EC50 [Akt], Akt3 / Akt2: cell viability assay Ba/F3 myr-Akt cells, log units
# Akt3 = Akt3 (Homo sapiens, UniProt Q9Y243); assay: STK HTRF KinEASE activity-based assay (IC50)
# Akt3, sequence (Q9Y243 whole entry): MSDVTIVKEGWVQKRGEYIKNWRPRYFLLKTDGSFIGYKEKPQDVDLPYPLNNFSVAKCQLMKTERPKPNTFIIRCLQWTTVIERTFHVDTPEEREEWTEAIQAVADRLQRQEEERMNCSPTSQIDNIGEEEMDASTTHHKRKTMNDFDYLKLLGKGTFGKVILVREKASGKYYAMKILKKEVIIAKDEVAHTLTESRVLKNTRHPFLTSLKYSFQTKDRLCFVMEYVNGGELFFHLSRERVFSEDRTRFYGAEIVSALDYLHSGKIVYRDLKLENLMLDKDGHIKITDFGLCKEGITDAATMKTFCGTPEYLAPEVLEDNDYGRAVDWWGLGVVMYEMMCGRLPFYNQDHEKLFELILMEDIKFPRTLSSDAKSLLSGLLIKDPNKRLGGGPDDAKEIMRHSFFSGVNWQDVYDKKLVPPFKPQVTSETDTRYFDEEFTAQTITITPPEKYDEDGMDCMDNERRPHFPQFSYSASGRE
# Experimental: The biochemical half maximal inhibitory concentrations (IC50) were determined with the STK HTRF KinEASE assay (Cisbio) according to the manufactor’s instructions. Briefly: 5 µL Kinase solution and 2.5 µL inhibitor solution (8% DMSO in HTRF buffer) were incubated for 1 h before the reaction was started by addition of 2.5 µL starting solution containing ATP and substrate peptide. […] After reaction completion (Akt1: 60 min, Akt2: 20 min, Akt3: 15 min), 10 µL of stop solution were added. […] The quotient of both intensities were recorded at eight different inhibitor concentrations and data fit to a Hill 4-parameter equation with Quattro software suite (Quattro Research GmbH, Martinsried, Germany). Each reaction was performed in duplicates and at least three independent determinations of each IC50 were made.
# Ba/F3^myr-Akt2 cells = assay: CellTiter-Glo cell viability assay
# Ba/F3^myr-Akt1 cells = assay: CellTiter-Glo cell viability assay; conditions: for Log ratio EC50 [Akt] / EC50 [Akt], Akt1 / Akt2: cell viability assay Ba/F3 myr-Akt cells, log units
# Akt1 = Akt1 (Homo sapiens, UniProt P31749); assay: STK HTRF KinEASE activity-based assay (IC50); conditions: for Log ratio IC50 [Akt] / IC50 [Akt], Akt1 / Akt2: biochemical activity based assay, log units
# Akt1, sequence (P31749 whole entry): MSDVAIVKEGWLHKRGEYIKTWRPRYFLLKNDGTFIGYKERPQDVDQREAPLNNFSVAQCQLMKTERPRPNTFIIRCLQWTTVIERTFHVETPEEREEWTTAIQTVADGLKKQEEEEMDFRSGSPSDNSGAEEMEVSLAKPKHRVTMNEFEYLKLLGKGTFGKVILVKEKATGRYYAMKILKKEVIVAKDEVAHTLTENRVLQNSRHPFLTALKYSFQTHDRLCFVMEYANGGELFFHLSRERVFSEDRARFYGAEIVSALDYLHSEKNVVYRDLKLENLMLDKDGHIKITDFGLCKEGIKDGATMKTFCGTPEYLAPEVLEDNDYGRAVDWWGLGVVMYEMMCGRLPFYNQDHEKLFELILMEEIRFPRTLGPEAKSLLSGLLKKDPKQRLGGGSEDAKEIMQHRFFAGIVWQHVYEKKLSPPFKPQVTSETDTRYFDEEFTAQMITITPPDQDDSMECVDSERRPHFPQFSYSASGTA
# parental Ba/F3 cells = assay: CellTiter-Glo cell viability assay; assay type: cell-based, murine; conditions: single replicates, read-out: CTG BaF3, individual determinations
# Experimental: On day 0, cells were plated into white 384-well cell culture plates (Greiner Bio-One) using a Multidrop reagent dispenser (Thermo Fisher Scientific) at cell numbers that ensure linear and optimal luminescent signal intensity (Ba/F3myr-Akt1: 600 cells/well, Ba/F3myr-Akt2: 800 cells/well, Ba/F3myr-Akt3: 800 cells/well). […] Cell viability was analyzed on day 4 using the CellTiter-Glo Assay (Promega) as per the manufacturer’s instructions. […] All experimental points were measured in duplicates for each plate and were replicated in at least three plates.
# [1] = HTRF IC50 Akt2, individual determinations, single replicates
# [2] = IC50 Akt2, HTRF, ATP at KM, 1 h preincubation
# [3] = Mus musculus, read-out: CTG BaF3myr-Akt3, Mean, mean of replicates
# [4] = Mus musculus, read-out: CTG BaF3myr-Akt3, individual determinations, single replicates
# [5] = read-out: CTG BaF3myr-Akt3, individual determinations, single replicates
# [6] = HTRF IC50 Akt3, Mean, mean of replicates
# [7] = HTRF IC50 Akt3, individual determinations, single replicates
# [8] = IC50 Akt3, HTRF, ATP at KM, 1 h preincubation
# [9] = Mus musculus, read-out: CTG BaF3myr-Akt2, Mean, mean of replicates
# [10] = Mus musculus, read-out: CTG BaF3myr-Akt2, individual determinations, single replicates
# [11] = read-out: CTG BaF3myr-Akt2, individual determinations, single replicates
# [12] = Mus musculus, read-out: CTG BaF3myr-Akt1, Mean, mean of replicates
# [13] = Mus musculus, read-out: CTG BaF3myr-Akt1, individual determinations, single replicates
# [14] = Mus musculus, read-out: EC50 BaF3myr-Akt1, CTG
# [15] = read-out: CTG BaF3myr-Akt1, individual determinations, single replicates
# [16] = HTRF IC50 Akt1, Mean, mean of replicates
# [17] = HTRF IC50 Akt1, individual determinations, single replicates
# [18] = IC50 Akt1, HTRF, ATP at KM, 1 h preincubation
# [19] = Mus musculus, BaF3, parental cells
# [20] = HTRF IC50 Akt2, Mean, mean of replicates
# Akt2, sequence (P31751 whole entry): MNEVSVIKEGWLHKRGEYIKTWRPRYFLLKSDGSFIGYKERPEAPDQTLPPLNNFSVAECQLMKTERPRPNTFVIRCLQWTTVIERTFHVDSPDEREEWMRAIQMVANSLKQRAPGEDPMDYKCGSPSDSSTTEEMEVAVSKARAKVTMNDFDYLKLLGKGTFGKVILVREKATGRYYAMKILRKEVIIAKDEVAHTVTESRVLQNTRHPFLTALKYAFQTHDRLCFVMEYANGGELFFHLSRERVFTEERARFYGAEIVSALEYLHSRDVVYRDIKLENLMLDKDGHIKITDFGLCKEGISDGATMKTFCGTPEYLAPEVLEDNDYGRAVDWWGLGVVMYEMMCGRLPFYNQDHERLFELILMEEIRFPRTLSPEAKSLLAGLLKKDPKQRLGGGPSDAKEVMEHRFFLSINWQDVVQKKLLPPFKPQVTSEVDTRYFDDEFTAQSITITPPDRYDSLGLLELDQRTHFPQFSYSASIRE
IC50 (Akt2; [1]),IC50 (Akt2; [2]) [µM],EC50 (Ba/F3^myr-Akt3 cells; [3]) [µM],EC50 (Ba/F3^myr-Akt3 cells; [4]) [µM],EC50 (Ba/F3^myr-Akt3 cells; [5]),IC50 (Akt3; [7]),IC50 (Akt3; [8]) [µM],EC50 (Ba/F3^myr-Akt2 cells; [9]) [µM],EC50 (Ba/F3^myr-Akt2 cells; [11]),EC50 (Ba/F3^myr-Akt1 cells; [12]) [µM],EC50 (Ba/F3^myr-Akt1 cells; [13]) [µM],EC50 (Ba/F3^myr-Akt1 cells; [15]),IC50 (Akt1; [16]) [µM],IC50 (Akt1; [17]),IC50 (Akt1; [18]) [µM],"Log ratio IC50 [Akt] / IC50 [Akt], Akt1 / Akt2 (Akt1)",SMILES,"Log ratio EC50 [Akt] / EC50 [Akt], Akt3 / Akt2 (Ba/F3^myr-Akt3 cells)","Log ratio EC50 [Akt] / EC50 [Akt], Akt1 / Akt2 (Ba/F3^myr-Akt1 cells)",EC50 (parental Ba/F3 cells; [19]) [µM],EC50 (parental Ba/F3 cells; parental cells),other results
1.92 µM and 4.34 µM and 2.21 µM,2.07 ± 0.147,26.5,23.6,28.3 µM and 27 µM,> 20 µM,> 20,12.8,12.4 µM and 14.1 µM,> 30,> 30,> 30 µM,4.57,4.34 µM and 4.53 µM and 4.82 µM,4.57 ± 0.197,0.34,C=CC(=O)Nc1ccc2[nH]c(=O)n(C3CCN(Cc4ccc(-c5ncc(C(=O)N6CCCC6)cc5-c5ccccc5)cc4)CC3)c2c1 [compound 8],-0.32,0.37,17.3,20.7 µM and > 30 µM,"drop in affinity of the amide-linked version (7 vs. 8) (Akt2; Akt2, biochemical IC50): 5 fold; IC50 (Akt3; [6]): > 20 µM; IC50 (Akt3; read-out: HTRF IC50 Akt3, individual determinations, single replicates): > 20 µM; EC50 (Ba/F3^myr-Akt2 cells; [10]): 11.8 µM; EC50 (Ba/F3^myr-Akt1 cells; [14]): > 30 µM"
0.27 µM and 0.352 µM and 0.233 µM,0.251 ± 0.018,5.29,,9.47 µM and 3.28 µM and 3.12 µM,0.64 µM and 0.477 µM and 0.703 µM,0.607 ± 0.095,3.05,2.1 µM and 3.52 µM,8.29,7.5,10.1 µM and 7.32 µM,1.28,1.29 µM (2×) and 1.26 µM,1.28 ± 0.018,0.71,C=CC(=O)Nc1ccc2[nH]c(=O)n(C3CCN(Cc4ccc(-c5ncc(Cc6cnn(C)c6)cc5-c5ccccc5)cc4)CC3)c2c1 [compound 12],-0.24,0.43,17.5,> 30 µM and 26.7 µM,IC50 (Akt2; [20]): 0.251 µM; IC50 (Akt3; [6]): 0.607 µM; EC50 (Ba/F3^myr-Akt2 cells; [10]): 3.04 µM
1.3 µM and 1.34 µM and 1.56 µM,1.4 ± 0.112,17.2,15.7,18.6 µM and 17.2 µM,4.83 µM and 5.38 µM and 2.87 µM,4.36 ± 1.08,14.3,11.5 µM and 13.9 µM and 23.9 µM and 7.94 µM,26.7,28,22.1 µM,0.604,0.57 µM and 0.597 µM and 0.645 µM,0.604 ± 0.031,-0.37,C=CC(=O)Nc1ccc2[nH]c(=O)n(C3CCN(Cc4ccc(-c5ncc(Cc6ccc(C)o6)cc5-c5ccccc5)cc4)CC3)c2c1 [compound 15],-0.08,0.27,> 30,> 30 µM and 25.7 µM,

SMILES,IC50 (Akt2; [1]),IC50 (Akt2; [2]) [µM],EC50 (Ba/F3^myr-Akt3 cells; [3]) [µM],EC50 (Ba/F3^myr-Akt3 cells; [4]) [µM],EC50 (Ba/F3^myr-Akt3 cells; [5]),IC50 (Akt3; [7]),IC50 (Akt3; [8]) [µM],EC50 (Ba/F3^myr-Akt2 cells; [9]) [µM],EC50 (Ba/F3^myr-Akt2 cells; [11]),EC50 (Ba/F3^myr-Akt1 cells; [12]) [µM],EC50 (Ba/F3^myr-Akt1 cells; [13]) [µM],EC50 (Ba/F3^myr-Akt1 cells; [15]),IC50 (Akt1; [16]) [µM],IC50 (Akt1; [17]),IC50 (Akt1; [18]) [µM],"Log ratio IC50 [Akt] / IC50 [Akt], Akt1 / Akt2 (Akt1)","Log ratio EC50 [Akt] / EC50 [Akt], Akt3 / Akt2 (Ba/F3^myr-Akt3 cells)","Log ratio EC50 [Akt] / EC50 [Akt], Akt1 / Akt2 (Ba/F3^myr-Akt1 cells)",EC50 (parental Ba/F3 cells; [19]) [µM],EC50 (parental Ba/F3 cells; parental cells),other results
C=CC(=O)Nc1ccc2[nH]c(=O)n(C3CCN(Cc4ccc(-c5ncc(CNCC(C)C)cc5-c5ccccc5)cc4)CC3)c2c1 [compound 9],4.62 µM and 3.65 µM and 4.37 µM,4.21 ± 0.412,14.1,15.9,18.6 µM and 9.33 µM and 12.7 µM,6.9 µM and 10.4 µM and 7.86 µM,8.37 ± 1.78,13.6,12.5 µM,> 30,> 30,> 30 µM,5.93,6.84 µM and 5.56 µM and 5.38 µM,5.93 ± 0.793,0.15,-0.02,0.34,> 30,28.5 µM and > 30 µM,IC50 (Akt2; [20]): 4.21 µM; IC50 (Akt3; [6]): 8.37 µM; EC50 (Ba/F3^myr-Akt2 cells; [10]): 17.2 µM; EC50 (Ba/F3^myr-Akt1 cells; [14]): > 30 µM
